Counter-ions that a name gives are not always drawn.
Experiments:
[1] = tested on: purine salvage pathway enzymes such as adenosine deaminase and purine nucleoside phosphorylase; settings: cited from earlier work
[2] = tested on: HCV replication in human liver tissue; experiment: HCV-infected human liver slice assay; format: cell-based
Experimental: Inhibition of HCV replication in human liver tissue is evaluated using the following assay. Procurement. Liver from a brain-dead HCV antibody-positive human patient is perfused with ice-cold Viaspan (Dupont Pharmaceutical) preservation solution and received on ice in Viaspan. Precision-cut liver slices of ˜200-250 μm thickness and […] are prepared and cultured in Waymouth's cell culture medium (Gibco, Inc.) that is supplemented with 10% fetal bovine serum and 10 mL/L Fungi-Bact at 37° C., and gassed with carbogen (95% O2, 5% CO2) at 0.75 liters/min. Tissue slices are maintained in culture for 72 h. Cell culture medium containing test compound in solution is changed on a daily basis. At appropriate times of liver slice incubation, liver slices and medium are collected for analysis of HCV RNA (tissue and medium) and nucleotide levels (NTP). All collected media and tissue slices are maintained in liquid N2 until analysis. Medium and tissue samples are analyzed for HCV RNA levels according to published procedures (Bonacini et. al., 1999) which utilize an automated, multicycle, polymerase chain reaction (PCR) based technique. This assay has a lower limit of detection for HCV RNA of 100 viral copies/ml.

In the case of C[C@@]1(O)[C@H](O)[C@@H](CO)O[C@H]1n1cnc2c(N)ncnc21 [2′-C-methyladenosine], the “resistance to metabolism by purine salvage pathway enzymes” value [1] is listed as “increased resistance to metabolism”.

In the case of C[C@@]1(O)[C@H](O)[C@@H](CO)O[C@H]1n1cnc2c(=O)[nH]c(N)nc21 [2′-C-methylguanosine], the “HCV RNA levels present in the liver slice culture media” value ([2]; relative to control, untreated slices, following incubation) is reported as “decreased” and the “amount of HCV RNA released into the culture medium” value ([2]; treatment for 72 h, medium from 48-72 h) is reported as “decreases”.

In the case of CCCCCOc1nc(N)nc2c1ncn2[C@@H]1O[C@H](CO[P@@]2(=O)OCC[C@@H](c3cccc(Cl)c3)O2)[C@H]2OC(=O)O[C@]21C [Compound 150, 2(R)-(2-Amino-6-pentyloxy-9(H)-purinyl)-4(R)-(4(S)-(3-chlorophenyl)-2-oxo-1,3,2-dioxaphosphorinan-2(R)-yloxymethyl)-1(R)-methyl-7-oxo-3,6,8-trioxa-cis-bicyclo[3.3.0]octane], the melting point is reported as 80 to 82 °C.

Compound CC(C)[C@H](N)C(=O)O[C@@H]1[C@@H](CO[P@@]2(=O)OCC[C@@H](c3cccc(Cl)c3)O2)O[C@@H](n2cnc3c(O)nc(N)nc32)[C@]1(C)O (as salt: trifluoroacetate) [Compound 118, 2(R)-(2-Amino-6-hydroxy-9 (H)-purinyl)-5(R)-(4(S)-(3-chlorophenyl)-2-oxo-1,3,2-dioxaphosphorinan-2(R)-yloxymethyl)-3(R)-hydroxy-3(R)-methyl-4(R)-L-valinyl-tetrahydrofuran] has a melting point of over 210 °C.

Compound CC(C)CCOc1nc(N)nc2c1ncn2[C@@H]1O[C@H](CO[P@@]2(=O)OCC[C@@H](c3cccc(Cl)c3)O2)[C@H]2OC(=O)O[C@]21C [Compound 134, 2(R)-(2-Amino-6-(3-methylbutyloxy)-9(H)-purinyl)-4(R)-(4(S)-(3-chlorophenyl)-2-oxo-1,3,2-dioxaphosphorinan-2(R)-yloxymethyl)-1(R)-methyl-7-oxo-3,6,8-trioxa-cis-bicyclo[3.3.0]octane] has a melting point of 76 to 78 °C.

C[C@@]12OC(=O)O[C@@H]1[C@@H](CO[P@@]1(=O)OCC[C@@H](c3cccc(Cl)c3)O1)O[C@H]2n1cnc2c(O)nc(N)nc21 [Compound 106, 2(R)-(2-Amino-6-hydroxy-9 (H)-purinyl)-4(R)-(4(S)-(3-chlorophenyl)-2-oxo-1,3,2-dioxaphosphorinan-2(R)-yloxymethyl)-1(R)-methyl-7-oxo-3,6,8-trioxa-cis-bicyclo[3.3.0]octane] gave a melting point of over 200 °C.
